From PubChem BioAssay (NCI)
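Growth conditions: 96-well plates. Treatment: test compound, 48 hours, 5 concentrations. Analysis: linear interpolation between bracketing concentrations; unreached endpoints set to highest concentration. GI50: concentration for 50% inhibition of growth. Definition used: TGI = concentration required for complete inhibition of growth.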

What was measured:
Test in all cases: DTP human tumour cell line panel, 48 h
A498 renal = test system: A498 renal
HOP-92 NSCLC = test system: HOP-92 NSCLC
HT29 colon = test system: HT29 colon
MOLT-4 leukemia = test system: MOLT-4 leukemia
NCI-H522 lung = test system: NCI-H522 lung
NCI/ADR-RES ovarian = test system: NCI/ADR-RES ovarian
OVCAR-3 ovarian = test system: OVCAR-3 ovarian
RPMI-8226 leukemia = test system: RPMI-8226 leukemia
SNB-19 CNS = test system: SNB-19 CNS
SNB-75 CNS = test system: SNB-75 CNS

| Structure (SMILES) | GI50 (A498 renal) [µM] | TGI (A498 renal) [µM] | TGI (HOP-92 NSCLC) [µM] | GI50 (HT29 colon) [µM] | TGI (HT29 colon) [µM] | GI50 (MOLT-4 leukemia) [µM] | TGI (MOLT-4 leukemia) [µM] | GI50 (NCI-H522 lung) [µM] | TGI (NCI-H522 lung) [µM] | GI50 (NCI/ADR-RES ovarian) [µM] | TGI (NCI/ADR-RES ovarian) [µM] | GI50 (OVCAR-3 ovarian) [µM] | TGI (OVCAR-3 ovarian) [µM] | TGI (RPMI-8226 leukemia) [µM] | GI50 (SNB-19 CNS) [µM] | TGI (SNB-19 CNS) [µM] | GI50 (SNB-75 CNS) [µM] | TGI (SNB-75 CNS) [µM] | GI50 (HOP-92 NSCLC) [µM] | GI50 (RPMI-8226 leukemia) [µM] |
| --- | --- | --- | --- | --- | --- | --- | --- | --- | --- | --- | --- | --- | --- | --- | --- | --- | --- | --- | --- | --- |
| O=Nc1c(-c2c(O)[nH]c3ncccc23)[nH]c2ccccc12 | 1.93 | > 100 | > 100 | > 94.2 | > 100 | 3.4 | > 100 | > 53.6 | > 100 | > 100 | > 100 | > 100 | > 100 | > 79 | > 100 | > 100 | 2.56 | > 100 | – | – |
| N/C(=N\OC(=O)c1ccccc1)C(Cc1ccccc1)C(=O)NOC(=O)c1ccccc1 (stereo not drawn) | 11 | 23.2 | 3.63 | 5.24 | 18.5 | 2.21 | 5.85 | 1.7 | 3.47 | 2.72 | 11.3 | 1.8 | 4.1 | 4.95 | 3.55 | 15.6 | 1.62 | 3.41 | 1.84 | 1.74 |
| CCOC(=O)c1cc2c(cc1Cl)SC(=Nc1ccccc1)N(S(=O)(=O)c1ccc(Br)s1)S2(=O)=O | 16.2 | 34 | 33.6 | 31.2 | > 100 | 4.37 | 17.9 | 26.4 | 74.9 | 17.5 | 37.6 | 12.2 | 24.7 | 41.9 | 36.6 | > 100 | 23.4 | 60.8 | 10.9 | 12.1 |
| CCC(=O)Nc1ccc(N2C(=O)/C(=C/c3ccc(OC)cc3)N=C2c2ccccc2)cc1 | 10.4 | > 50 | 21.1 | 5.91 | > 50 | 1.06 | > 50 | 48.5 | > 50 | 9.77 | > 50 | > 50 | > 50 | > 50 | 14.1 | > 50 | 6.86 | > 50 | 0.0351 | 4.67 |
| COc1cc(/C=C/c2ccc3c(Br)cc(Br)c(O)c3n2)ccc1O | 9.43 | 21.8 | 20.8 | 3.86 | 12.8 | 0.606 | 7.04 | 2.36 | 11 | 0.327 | 1.49 | 1.66 | 9.12 | 8.07 | 2.67 | 15.2 | 2.5 | 10.1 | 4.77 | 1.21 |
| CC(C)C[C@H](NC(=O)CCn1ccc2ccccc2c1=O)B(O)O | 1.22 | 4.79 | 67.1 | 3.68 | 48.7 | 1.28 | 5.94 | 2.6 | 8.09 | 67.1 | > 100 | 1.97 | 5.66 | 7.07 | 8.02 | > 100 | 2.94 | 15.9 | 10.9 | 1.06 |
| Nc1nc(N)c(CCCCc2ccccc2)c(N)n1 | – | > 100 | > 100 | – | > 100 | – | > 100 | – | > 100 | – | > 100 | – | > 100 | > 100 | – | > 100 | – | > 100 | – | – |
